From patent publication US10456358B2, “Isoxazoline compositions and use thereof in the prevention or treatment of parasite infestations in animals” (Intervet Inc., priority 2013, dated 2019)

Assay: Technological study: fluralaner concentration at drinking nipples of a poultry house water system
Type: physicochemical
Description: The study was conducted in a commercial poultry house for approximately 36000 replacement chickens with 4 batteries each with 3 levels. 4 PVC water dead-end pipes, (78 m long) supplied water for each battery.
Drinking nipples (Big Dutchman types “screw nipples” and “Top”, equipped with a single-arm plastic drip cup) were fitted to the water pipes. In this facility the delivery of the concentrated composition to the drinking nipples using both a dosing pump system and a medication tank was evaluated. • a) Dosing Pump • The dosing pump and its stock solution container were installed in a water hose coming from the water supply pipe and ending in a water tank that was metered for […]. • The dosing pump was set for 5% injection rate. The stock solution container was filled with a total of 8.8 L (175×0.05 [5%]). • Once the container was filled, the calculated volume of 193 mL of the concentrated composition was poured into the container and subsequently stirred. • The dosing pump was connected to the water distribution pipe and the pipe system filled with the medicated water. • b) Medication Tank • The medication tank was filled with 175 L of tap water. • The calculated volume of 193 mL of the concentrated composition was poured into the container and subsequently stirred. • The medication tank was connected to the water distribution pipe and the pipe system filled with the medicated water.
No animals were present in the cages. Therefore the water lines were opened every 10 min to mimic a continuous (intermittent) drinking water flow. At each draining 7.3 L of medicated water was allowed to drain at the dead-end side of the pipe.
Samples of medicated water was taken from 6 drinking nipples: the first and last drinking nipple in a drinker line, and from 4 drinking nipples having an equal distance at pre-defined time points, with a maximum of 4 h and analysed for fluralaner concentration.

Cc1cc(C2=NOC(c3cc(Cl)cc(Cl)c3)(C(F)(F)F)C2)ccc1C(=O)NCC(=O)NCC(F)(F)F (stereo not shown) [fluralaner, 4-[5-(3,5-Dichlorophenyl)-5-trifluoromethyl-4,5-dihydroisoxazol-3-yl]-2-methyl-N-[(2,2,2-trifluoro-ethylcarbamoyl)-methyl]-benzamide]
Deviation of fluralaner concentration at the drinking nipple from nominal concentration (percent) (Dosing pump system, Nipple 1, T 30 min): −10% | Deviation of fluralaner concentration at the drinking nipple from nominal concentration (percent) (Dosing pump system, Nipple 1, T 60 min): −10% | Deviation of fluralaner concentration at the drinking nipple from nominal concentration (percent) (Dosing pump system, Nipple 1, T 120 min): −9% | Deviation of fluralaner concentration at the drinking nipple from nominal concentration (percent) (Dosing pump system, Nipple 1, T 180 min): −9% | Deviation of fluralaner concentration at the drinking nipple from nominal concentration (percent) (Dosing pump system, Nipple 1, T 240 min): −9% | Deviation of fluralaner concentration at the drinking nipple from nominal concentration (percent) (Dosing pump system, Nipple 2, T 30 min): −9% | Deviation of fluralaner concentration at the drinking nipple from nominal concentration (percent) (Dosing pump system, Nipple 2, T 60 min): −14% | Deviation of fluralaner concentration at the drinking nipple from nominal concentration (percent) (Dosing pump system, Nipple 2, T 120 min): −12% | Deviation of fluralaner concentration at the drinking nipple from nominal concentration (percent) (Dosing pump system, Nipple 2, T 180 min): −9% | Deviation of fluralaner concentration at the drinking nipple from nominal concentration (percent) (Dosing pump system, Nipple 2, T 240 min): −9% | Deviation of fluralaner concentration at the drinking nipple from nominal concentration (percent) (Dosing pump system, Nipple 3, T 30 min): −9% | Deviation of fluralaner concentration at the drinking nipple from nominal concentration (percent) (Dosing pump system, Nipple 3, T 60 min): −10% | Deviation of fluralaner concentration at the drinking nipple from nominal concentration (percent) (Dosing pump system, Nipple 3, T 120 min): −10% | Deviation of fluralaner concentration at the drinking nipple from nominal concentration (percent) (Dosing pump system, Nipple 3, T 180 min): −14% | Deviation of fluralaner concentration at the drinking nipple from nominal concentration (percent) (Dosing pump system, Nipple 3, T 240 min): −14% | Deviation of fluralaner concentration at the drinking nipple from nominal concentration (percent) (Dosing pump system, Nipple 4, T 30 min): −12% | Deviation of fluralaner concentration at the drinking nipple from nominal concentration (percent) (Dosing pump system, Nipple 4, T 60 min): −16% | Deviation of fluralaner concentration at the drinking nipple from nominal concentration (percent) (Dosing pump system, Nipple 4, T 120 min): −14% | Deviation of fluralaner concentration at the drinking nipple from nominal concentration (percent) (Dosing pump system, Nipple 4, T 180 min): −10% | Deviation of fluralaner concentration at the drinking nipple from nominal concentration (percent) (Dosing pump system, Nipple 4, T 240 min): −10% | Deviation of fluralaner concentration at the drinking nipple from nominal concentration (percent) (Dosing pump system, Nipple 5, T 30 min): −12% | Deviation of fluralaner concentration at the drinking nipple from nominal concentration (percent) (Dosing pump system, Nipple 5, T 60 min): −10% | Deviation of fluralaner concentration at the drinking nipple from nominal concentration (percent) (Dosing pump system, Nipple 5, T 120 min): −11% | Deviation of fluralaner concentration at the drinking nipple from nominal concentration (percent) (Dosing pump system, Nipple 5, T 180 min): −10% | Deviation of fluralaner concentration at the drinking nipple from nominal concentration (percent) (Dosing pump system, Nipple 5, T 240 min): −10% | Deviation of fluralaner concentration at the drinking nipple from nominal concentration (percent) (Dosing pump system, Nipple 6, T 30 min): −26% | Deviation of fluralaner concentration at the drinking nipple from nominal concentration (percent) (Dosing pump system, Nipple 6, T 60 min): −10% | Deviation of fluralaner concentration at the drinking nipple from nominal concentration (percent) (Dosing pump system, Nipple 6, T 120 min): −11% | Deviation of fluralaner concentration at the drinking nipple from nominal concentration (percent) (Dosing pump system, Nipple 6, T 180 min): −11% | Deviation of fluralaner concentration at the drinking nipple from nominal concentration (percent) (Dosing pump system, Nipple 6, T 240 min): −10% | Deviation of fluralaner concentration at the drinking nipple from nominal concentration (percent) (Medication tank system, Nipple 1, T 30 min): −5% | Deviation of fluralaner concentration at the drinking nipple from nominal concentration (percent) (Medication tank system, Nipple 1, T 60 min): −4% | Deviation of fluralaner concentration at the drinking nipple from nominal concentration (percent) (Medication tank system, Nipple 1, T 120 min): −4% | Deviation of fluralaner concentration at the drinking nipple from nominal concentration (percent) (Medication tank system, Nipple 1, T 180 min): −5% | Deviation of fluralaner concentration at the drinking nipple from nominal concentration (percent) (Medication tank system, Nipple 1, T 240 min): −10% | Deviation of fluralaner concentration at the drinking nipple from nominal concentration (percent) (Medication tank system, Nipple 2, T 30 min): −7% | Deviation of fluralaner concentration at the drinking nipple from nominal concentration (percent) (Medication tank system, Nipple 2, T 60 min): −5% | Deviation of fluralaner concentration at the drinking nipple from nominal concentration (percent) (Medication tank system, Nipple 2, T 120 min): −4% | Deviation of fluralaner concentration at the drinking nipple from nominal concentration (percent) (Medication tank system, Nipple 2, T 180 min): −5% | Deviation of fluralaner concentration at the drinking nipple from nominal concentration (percent) (Medication tank system, Nipple 2, T 240 min): −4% | Deviation of fluralaner concentration at the drinking nipple from nominal concentration (percent) (Medication tank system, Nipple 3, T 30 min): −5% | Deviation of fluralaner concentration at the drinking nipple from nominal concentration (percent) (Medication tank system, Nipple 3, T 60 min): −4% | Deviation of fluralaner concentration at the drinking nipple from nominal concentration (percent) (Medication tank system, Nipple 3, T 120 min): −4% | Deviation of fluralaner concentration at the drinking nipple from nominal concentration (percent) (Medication tank system, Nipple 3, T 180 min): −4% | Deviation of fluralaner concentration at the drinking nipple from nominal concentration (percent) (Medication tank system, Nipple 3, T 240 min): −4% | Deviation of fluralaner concentration at the drinking nipple from nominal concentration (percent) (Medication tank system, Nipple 4, T 30 min): −6% | Deviation of fluralaner concentration at the drinking nipple from nominal concentration (percent) (Medication tank system, Nipple 4, T 60 min): −5% | Deviation of fluralaner concentration at the drinking nipple from nominal concentration (percent) (Medication tank system, Nipple 4, T 120 min): −4% | Deviation of fluralaner concentration at the drinking nipple from nominal concentration (percent) (Medication tank system, Nipple 4, T 180 min): −4% | Deviation of fluralaner concentration at the drinking nipple from nominal concentration (percent) (Medication tank system, Nipple 4, T 240 min): −3% | Deviation of fluralaner concentration at the drinking nipple from nominal concentration (percent) (Medication tank system, Nipple 5, T 30 min): −8% | Deviation of fluralaner concentration at the drinking nipple from nominal concentration (percent) (Medication tank system, Nipple 5, T 60 min): −4% | Deviation of fluralaner concentration at the drinking nipple from nominal concentration (percent) (Medication tank system, Nipple 5, T 120 min): −4% | Deviation of fluralaner concentration at the drinking nipple from nominal concentration (percent) (Medication tank system, Nipple 5, T 180 min): −4% | Deviation of fluralaner concentration at the drinking nipple from nominal concentration (percent) (Medication tank system, Nipple 5, T 240 min): −6% | Deviation of fluralaner concentration at the drinking nipple from nominal concentration (percent) (Medication tank system, Nipple 6, T 30 min): −6% | Deviation of fluralaner concentration at the drinking nipple from nominal concentration (percent) (Medication tank system, Nipple 6, T 60 min): −6% | Deviation of fluralaner concentration at the drinking nipple from nominal concentration (percent) (Medication tank system, Nipple 6, T 120 min): −4% | Deviation of fluralaner concentration at the drinking nipple from nominal concentration (percent) (Medication tank system, Nipple 6, T 180 min): −5% | Deviation of fluralaner concentration at the drinking nipple from nominal concentration (percent) (Medication tank system, Nipple 6, T 240 min): −4% | fluralaner concentration in the drinking water over time and along the drinking water line (up to 4 hours, medication tank and dosing pump): remains constant over time and along the drinking water line
